Read-outs that look alike come from different tables or passages of the source.
System: MT-4 cells
Test: MT-4 proliferation assay
Type: cell-based, human
Details: Homo sapiens, MT4, 120 h
Description: MT-4 Proliferation Assay:
Compounds were tested in a standardized high-throughput 384-well assay format. Each compound was serially diluted 3-fold in 100% DMSO in polypropylene 384-well plates using a Biomek FX Workstation, and 0.4 μL compound added to an assay plate containing 40 μL RPMI media. Compounds were arranged in a horizontal pattern, with 10 concentrations per compound, and 8 compounds added per plate. Due to low DMSO tolerability, the final DMSO concentration never exceeded 0.5% (v/v). Each assay plate contained 10 μM Puromycin and 0.5% DMSO in RPMI-1640 as positive and negative controls respectively. MT-4 cells (HTLV-1 transformed, human T lymphoblastoid cells, NIH Aids Reagent program) were added in volumes of 35 μL per well and 2,000 cells per well using a Biotek uFlow Workstation (Biotek, Winooski, Vt.), and the plates subsequently incubated for 5 days at 37° C. in an incubator set at 5% CO2 and 90% humidity.
After 5 days, 22 μL Cell Titer Glo (Promega) was added to the assay plates with a Biotek uFlow Workstation. Plates were subsequently placed on a Perkin Elmer Envision Plate Reader for 5 minutes before the luminescence signal was read.

[1] = Table 1, 5 days, Cell Titer Glo, read-out: MT4 Assay (EC50)

## Cc1noc(C)c1-c1cc(S(=O)(=O)NC2CCCC2)c2nc(NCC3CC3)[nH]c2c1 [Compound 1020-1, N-Cyclopentyl-2-(cyclopropylmethylamino)-6-(3,5-dimethylisoxazol-4-yl)-1H-benzo[d]imidazole-4-sulfonamide]
[1]
  EC50: 193 nM

## CSc1nc2c(S(=O)(=O)NC3CCCC3)cc(-c3c(C)noc3C)cc2[nH]1 [Compound 1020-4, N-Cyclopentyl-6-(3,5-dimethylisoxazol-4-yl)-2-(methylthio)-1H-benzo[d]imidazole-4-sulfonamide]
[1]
  EC50: 192 nM

## Cc1noc(C)c1-c1cc(S(=O)(=O)NC2CCCC2)c2nc([S+](C)[O-])[nH]c2c1 (stereo not shown) [Compound 1020-5, N-Cyclopentyl-6-(3,5-dimethylisoxazol-4-yl)-2-(methylsulfinyl)-1H-benzo[d]imidazole-4-sulfonamide]
read-out: MT4 Assay (EC50, nM)
  EC50: 329 nM

## Cc1cnn(C)c1-c1cc(-c2c(C)noc2C)cc2nc(C3CC3)[nH]c12 [Compound 1020-12, 4-(2-Cyclopropyl-7-(1,4-dimethyl-1H-pyrazol-5-yl)-1H-benzo[d]imidazol-5-yl)-3,5-dimethylisoxazole]
[1]
  EC50: 21.3 nM

## Cc1noc(C)c1-c1cc(-c2cccnc2-c2ccccc2)c2nc(C3CC3)[nH]c2c1 [Compound 1020-19, 4-(2-Cyclopropyl-4-(2-phenylpyridin-3-yl)-1H-benzo[d]imidazol-6-yl)-3,5-dimethylisoxazole]
[1]
  EC50: 24.4 nM

## CC/C=C(\CC)c1cc(-c2c(C)noc2C)cc2nc(C3CC3)[nH]c12 [Compound 1020-28, (E)-4-(2-Cyclopropyl-4-(hex-3-en-3-yl)-1H-benzo[d]imidazol-6-yl)-3,5-dimethylisoxazole]
[1]
  EC50: 51.6 nM

## Cc1noc(C)c1-c1cc(/C=C/c2ccccc2)c2[nH]c(C3CC3)nc2c1 [Compound 1020-37, (E)-4-(2-cyclopropyl-4-styryl-1H-benzo[d]imidazol-6-yl)-3,5-dimethylisoxazole]
[1]
  EC50: 518 nM

## Cc1noc(C)c1-c1cc(C(C)c2ccc(F)cc2)c2[nH]c(C3CC3)nc2c1 (stereo not shown) [Compound 1020-44, 4-(2-Cyclopropyl-4-(1-(4-fluorophenyl)ethyl)-1H-benzo[d]imidazol-6-yl)-3,5-dimethylisoxazole]
[1]
  EC50: 86.1 nM

## Cc1noc(C)c1-c1cc(NC2CCCC2)c2nc(C3CC3)[nH]c2c1 [Compound 1020-50, N-Cyclopentyl-2-cyclopropyl-6-(3,5-dimethylisoxazol-4-yl)-1H-benzo[d]imidazol-4-amine]
[1]
  EC50: 353 nM

## Cc1ccnc(C)c1-c1cc(-c2c(C)noc2C)cc2nc(C3CC3)[nH]c12 [Compound 1020-57, 4-(2-Cyclopropyl-7-(2,4-dimethylpyridin-3-yl)-1H-benzo[d]imidazol-5-yl)-3,5-dimethylisoxazole]
[1]
  EC50: 13.6 nM

## Cc1n[nH]c(C)c1-c1cc(-c2c(C)noc2C)cc2nc(C3CC3)n(C)c12 [Compound 1020-72, 4-(2-cyclopropyl-7-(3,5-dimethyl-1H-pyrazol-4-yl)-1-methyl-1H-benzo[d]imidazol-5-yl)-3,5-dimethylisoxazole]
[1]
  EC50: 6.5 nM

## Cc1ccc2ncccc2c1-c1cc(-c2c(C)noc2C)cc2nc(C3CC3)n(C)c12 [Compound 1020-74, 4-(2-Cyclopropyl-1-methyl-7-(6-methylquinolin-5-yl)-1H-benzo[d]imidazol-5-yl)-3,5-dimethylisoxazole]
[1]
  EC50: 15.3 nM

## Cc1n[nH]c(C)c1-c1cc(-c2c(C)noc2C)cc2[nH]c(C3CCC3)nc12 [Compound 1020-75, 4-(2-Cyclobutyl-4-(3,5-dimethyl-1H-pyrazol-4-yl)-1H-benzo[d]imidazol-6-yl)-3,5-dimethylisoxazole]
[1]
  EC50: 18.4 nM

## Cc1nc2cc(-c3c(C)noc3C)cc(-c3c(C)n[nH]c3C)c2[nH]1 [Compound 1020-77, 4-(7-(3,5-Dimethyl-1H-pyrazol-4-yl)-2-methyl-1H-benzo[d]imidazol-5-yl)-3,5-dimethylisoxazole]
[1]
  EC50: 39.4 nM

## Cc1n[nH]c(C)c1-c1cc(-c2c(C)noc2C)cc2nc(C3CC3(F)F)[nH]c12 (stereo not shown) [Compound 1020-78, 4-(2-(2,2-Difluorocyclopropyl)-7-(3,5-dimethyl-1H-pyrazol-4-yl)-1H-benzo[d]imidazol-5-yl)-3,5-dimethylisoxazole]
[1]
  EC50: 25.7 nM

## Cc1n[nH]c(C)c1-c1cc(-c2c(C)noc2C)cc2[nH]c(NCC3CC3)nc12 [Compound 1020-79, N-(Cyclopropylmethyl)-4-(3,5-dimethyl-1H-pyrazol-4-yl)-6-(3,5-dimethylisoxazol-4-yl)-1H-benzo[d]imidazol-2-amine]
[1]
  EC50: 33.8 nM

## Cc1n[nH]c(C)c1-c1cc(-c2c(C)noc2C)cc2[nH]c(NC3CC3)nc12 [Compound 1020-81, N-Cyclopropyl-4-(3,5-dimethyl-1H-pyrazol-4-yl)-6-(3,5-dimethylisoxazol-4-yl)-1H-benzo[d]imidazol-2-amine]
[1]
  EC50: 7.6 nM

## Cc1ccnc(C)c1-c1cc(-c2c(C)noc2C)cc2[nH]cnc12 [Compound 1020-84, 4-(4-(2,4-Dimethylpyridin-3-yl)-1H-benzo[d]imidazol-6-yl)-3,5-dimethylisoxazole]
[1]
  EC50: 236 nM

## Cc1ccc2ncccc2c1-c1cc(-c2c(C)noc2C)cc2[nH]c(-c3cnn(C)c3)nc12 [Compound 1020-88, 3,5-Dimethyl-4-(2-(1-methyl-1H-pyrazol-4-yl)-4-(6-methylquinolin-5-yl)-1H-benzo[d]imidazol-6-yl)isoxazole]
[1]
  EC50: 45.2 nM

## Cc1ccc2ncccc2c1-c1cc(-c2c(C)noc2C)cc2[nH]c(C(O)CCO)nc12 (stereo not shown) [Compound 1020-89, 1-(6-(3,5-dimethylisoxazol-4-yl)-4-(6-methylquinolin-5-yl)-1H-benzo[d]imidazol-2-yl)propane-1,3-diol]
[1]
  EC50: 104 nM

## COc1nc2c(-c3c(C)ccc4ncccc34)cc(-c3c(C)noc3C)cc2[nH]1 [Compound 1020-90, 4-(2-methoxy-4-(6-methylquinolin-5-yl)-1H-benzo[d]imidazol-6-yl)-3,5-dimethylisoxazole]
[1]
  EC50: 25 nM

## Cc1ccc2ncccc2c1-c1cc(-c2c(C)noc2C)cc2[nH]c(C(F)(F)F)nc12 [Compound 1020-92, 3,5-Dimethyl-4-(4-(6-methylquinolin-5-yl)-2-(trifluoromethyl)-1H-benzo[d]imidazol-6-yl)isoxazole]
[1]
  EC50: 73.1 nM

## Cc1n[nH]c(C)c1-c1cc(-c2c(C)noc2C)cc2nc(N)[nH]c12 [Compound 1020-96, 4-(3,5-Dimethyl-1H-pyrazol-4-yl)-6-(3,5-dimethylisoxazol-4-yl)-1H-benzo[d]imidazol-2-amine]
[1]
  EC50: 318 nM

## Cc1noc(C)c1-c1cc(C(O)(c2ccccc2)c2ccccc2)c2nc(C3CC3)[nH]c2c1 [Compound 1020-102, (2-Cyclopropyl-6-(3,5-dimethylisoxazol-4-yl)-1H-benzo[d]imidazol-4-yl)diphenylmethanol]
[1]
  EC50: 49.7 nM

## CCC(CC)c1cc(-c2c(C)noc2C)cc2[nH]c(C3CC3)nc12 [Compound 1020-120, 4-(2-Cyclopropyl-4-(pentan-3-yl)-1H-benzo[d]imidazol-6-yl)-3,5-dimethylisoxazole]
[1]
  EC50: 48.8 nM

## Cc1noc(C)c1-c1cc(C(O)C2CCCC2)c2nc(C3CC3)[nH]c2c1 (stereo not shown) [Compound 1020-121, Cyclopentyl(2-cyclopropyl-6-(3,5-dimethylisoxazol-4-yl)-1H-benzo[d]imidazol-4-yl)methanol]
[1]
  EC50: 42.8 nM

## CCC(O)(CC)c1cc(-c2c(C)noc2C)cc2c1nc(C1CC1)n2C [Compound 1020-132, 3-(2-Cyclopropyl-6-(3,5-dimethylisoxazol-4-yl)-1-methyl-1H-benzo[d]imidazol-4-yl)pentan-3-ol]
[1]
  EC50: 544 nM

## Cc1noc(C)c1-c1cc(N2C(=O)CCC2C)c2nc(C3CC3)[nH]c2c1 (stereo not shown) [Compound 1020-136, 1-(2-Cyclopropyl-6-(3,5-dimethylisoxazol-4-yl)-1H-benzo[d]imidazol-4-yl)-5-methylpyrrolidin-2-one]
[1]
  EC50: 335 nM

## CCC1CCC(=O)N1c1cc(-c2c(C)noc2C)cc2[nH]c(C3CC3)nc12 (stereo not shown) [Compound 1020-137, 1-(2-Cyclopropyl-6-(3,5-dimethylisoxazol-4-yl)-1H-benzo[d]imidazol-4-yl)-5-ethylpyrrolidin-2-one]
[1]
  EC50: 113 nM

## Cc1noc(C)c1-c1cc(S(=O)(=O)NC2CCCC2)c2nc(Cc3ccccc3)[nH]c2c1 [Compound 1020-141, 2-Benzyl-N-cyclopentyl-6-(3,5-dimethylisoxazol-4-yl)-1H-benzo[d]imidazole-4-sulfonamide]
[1]
  EC50: 887 nM

## Cc1noc(C)c1-c1cc(S(=O)(=O)NC2CCCC2)c2nc(NCC(F)(F)F)[nH]c2c1 [Compound 1020-148, N-Cyclopentyl-6-(3,5-dimethylisoxazol-4-yl)-2-(2,2,2-trifluoroethylamino)-1H-benzo[d]imidazole-4-sulfonamide]
[1]
  EC50: 495 nM

From US10017501B2, “Benzimidazole derivatives as bromodomain inhibitors” (Gilead Sciences, Inc., priority 2013, dated 2018)
